{"source": "paper PMC11988034", "about": "“Exposure–Response Relationships for Toceranib in Dogs with Solid Tumors: A Pilot Study” (Animals : an Open Access Journal from MDPI, 2025)", "key": {"[1]": {"settings": "cited from earlier work"}, "[2]": {"assay": "Plasma toceranib concentration (LC–MS/MS) in dogs with solid tumors treated with TOC", "assay_type": "in vivo", "settings": "for concentration at 48 h / Cmax: plasma; for concentration at 48 h: oral; for Cmax: po", "experimental": "A prospective, randomized clinical trial was conducted on client-owned dogs diagnosed with malignant solid tumors between May 2022 and October 2023 at the Konkuk University Animal Cancer Center. TOC ([…], NJ, USA) was administered orally at a dose range of 2.4-2.9 mg/kg every other day with or without food. Medical data for the dogs were collected, including signalment (age, sex, and neuter status); physical examination, blood pressure, hematology, biochemistry, urinalysis, diagnostic imaging (radiography, ultrasound, and computed tomography), and histopathological findings (surgical margin and mitotic count); TOC dose and duration of TOC treatment; and AEs and clinical outcomes. Dogs were excluded from this study if distant metastases were confirmed at the time of diagnosis or if the TOC treatment duration was less than 1 month, which is insufficient for evaluating its effect. This clinical trial was approved by the Institutional Animal Care and Use Committee of the Konkuk University (approval no. KU 23046). Whole blood (1-2 mL) was obtained from the external jugular vein after initiation of postoperative TOC treatment. Blood samples were collected in ethylenediaminetetraacetic acid tubes 6 h (Cmax) and 48 h (Cmin) after administration; these time points were determined based on previous studies. Within 30 min of collection, the samples were centrifuged at 3000× g for 10 min at 4 °C. The plasma was separated, divided into cryovials, and stored at -80 °C until analysis. […] Plasma toceranib was quantitated via high-performance liquid chromatography with tandem mass spectrometry detection (LC-MS/MS). […] After thorough vortexing for 1 min, the mixture was centrifuged at 15,000× g for 10 min at 4 °C, and 2 μL of the supernatant was collected and injected into the LC-MS/MS system. The LC-MS/MS system comprised an ExionLCTM AD system (Sciex, Toronto, ON, Canada) coupled with a Triple QuadTM 5500+ mass system (Sciex). Data were acquired using Analyst 1.4.3. Chromatographic separation was performed using an XBridge C18 column (100 × 2.1 mm, 5 μm; Waters Corporation, Milford, MA, USA) maintained at 40 °C. An isocratic mobile phase comprising 0.1% formic acid in water and 0.1% formic acid in acetonitrile (30:70, v/v) was used at a flow rate 0.50 mL/min, with the total run time not exceeding 3 min. The autosampler was maintained at 15 °C. All measurements were conducted using a mass spectrometer operated in the positive electrospray ionization mode. The multiple reaction monitoring transitions were m/z 397.2 → 283.0 for toceranib and m/z 405.2 → 283.1 for the toceranib-d8 internal standard (IS). The other parameters were as follows: collision gas, curtain gas, ion source gas 1, and ion source gas 2 at 7, 35, 50, and 70 psi, respectively; dwell time, 200 ms; ion spray voltage and temperature, 4000 V and 600 °C, respectively; declustering potential, 80 V for toceranib and the IS; collision energy, 40 V for toceranib and the IS; entrance potential (EP), 12 V for toceranib and 8 V for IS; and collision exit potential, 16 V for toceranib and 18 V for the IS. Standard curves were generated using the peak area ratios of toceranib to the IS and 1/x^2 weighted linear regression. Toceranib concentrations were determined via interpolation across a range of 5-500 ng/mL. Continuous variables are expressed as the mean ± standard deviation. Interpatient variability is expressed as the coefficient of variation, calculated as standard deviation divided by the mean and expressed as a percentage. Normality was assessed using the Shapiro-Wilk test. Continuous variables were compared using Student's t-test or Mann-Whitney U test. Linear mixed models for repeated measures were used to compare plasma TOC concentrations over time. Data were analyzed using SPSS v26.0 (IBM Corp., Armonk, NY, USA). Differences were considered significant at p < 0.05."}, "[3]": {"assay": "Assessment of adverse events (VCOG-CTCAE v2.0) in dogs treated with TOC", "assay_type": "in vivo", "experimental": "AEs were evaluated before TOC treatment (at baseline) and 1, 2, and 4 weeks thereafter, followed by regular check-ups every 1–2 months. At each follow-up, a physical examination, blood pressure measurement, hematological and biochemical tests, and urinalysis were performed. AEs were graded according to the Veterinary Cooperative Oncology Group Common Terminology Criteria for AEs (v2.0). Concomitant medications, including famotidine, omeprazole, silymarin, ursodeoxycholic acid, mirtazapine, and tramadol, were allowed to prevent or treat drug-related AEs. TOC was permanently discontinued upon request of the owner or if unacceptable AEs occurred or disease progression was identified."}, "malignant solid tumors": {"system": "malignant solid tumors", "assay": "Assessment of clinical outcome (tumor recurrence) in dogs with solid tumors on postoperative TOC", "assay_type": "in vivo", "experimental": "A prospective, randomized clinical trial was conducted on client-owned dogs diagnosed with malignant solid tumors between May 2022 and October 2023 at the Konkuk University Animal Cancer Center. TOC (Palladia®, Zoetis, Parsippany, NJ, USA) was administered orally at a dose range of 2.4–2.9 mg/kg every other day with or without food. Medical data for the dogs were collected, including signalment (age, sex, and neuter status); physical examination, blood pressure, hematology, biochemistry, urinalysis, diagnostic imaging (radiography, ultrasound, and computed tomography), and histopathological findings (surgical margin and mitotic count); TOC dose and duration of TOC treatment; and AEs and clinical outcomes. Dogs were excluded from this study if distant metastases were confirmed at the time of diagnosis or if the TOC treatment duration was less than 1 month, which is insufficient for evaluating its effect. This clinical trial was approved by the Institutional Animal Care and Use Committee of the Konkuk University (approval no. KU 23046).\nRechecks were performed every 1–2 months after the initiation of TOC treatment through physical examination, three-view thoracic radiography, and abdominal ultrasonography."}, "canine solid tumors": {"system": "canine solid tumors", "parameters": "method as in PMID 12855656, PMID 22236194, PMID 34981886", "settings": "various types of canine solid tumors; cited from earlier work"}, "[4]": {"parameters": "method as in PMID 24079884", "settings": "cited from earlier work"}, "[5]": {"settings": "cited from earlier work", "remark": "listed apart in the source"}, "[6]": {"parameters": "method as in PMID 12855656", "settings": "preclinical trials in rodent models; cited from earlier work"}, "[7]": {"parameters": "method as in PMID 34512023, PMID 31782166", "settings": "patients with metastatic renal cell tumors; cited from earlier work"}}, "note": "Read-outs that look alike come from different tables or passages of the source.", "data": [{"smiles": "Cc1[nH]c(/C=C2\\C(=O)Nc3ccc(F)cc32)c(C)c1C(=O)NCCN1CCCC1", "note": "[TOC, Toceranib phosphate]", "values": [{"measurement": "biological activity (dogs responding)", "setting": "[1]; 11/16 dogs treated with 2.5 mg/kg TOC every other day", "result": 69, "unit": "%"}, {"measurement": "biological activity (dogs responding)", "setting": "[1]; 12/20 dogs treated with TOC at the MTD", "result": 60, "unit": "%"}, {"measurement": "maximum tolerated dose (MTD)", "setting": "[1]; every other day, dogs", "result": 3.25, "unit": "mg/kg"}, {"measurement": "mean interpatient variability in dose-normalized Cmax (coefficient of variation)", "setting": "[2]; dog, in vivo", "result": 29, "unit": "%"}, {"measurement": "mean interpatient variability in dose-normalized Cmin (coefficient of variation)", "setting": "[2]; dog, in vivo, 48 h", "result": 61, "unit": "%"}, {"measurement": "concentration at 48 h", "setting": "[2]; dog, dogs with AEs, read-out: mean Cmin", "result": "13.5 ± 12.1", "unit": "ng/mL"}, {"measurement": "concentration at 48 h", "setting": "[2]; dog, dogs without AEs, read-out: mean Cmin", "result": "14.9 ± 11.3", "unit": "ng/mL"}, {"measurement": "concentration at 48 h", "setting": "[2]; dog, four dogs, mean ± SD, read-out: overall mean Cmin", "result": "14.2 ± 9.57", "unit": "ng/mL"}, {"measurement": "Cmax", "setting": "[2]; dog, dogs with AEs, read-out: mean Cmax at week 1", "result": "89.3 ± 26.3", "unit": "ng/mL"}, {"measurement": "Cmax", "setting": "[2]; dog, dogs with AEs, read-out: mean Cmax on average", "result": "86.2 ± 28.6", "unit": "ng/mL"}, {"measurement": "Cmax", "setting": "[2]; dog, dogs with tumor recurrence, read-out: mean Cmax at week 1", "result": "74.6 ± 49.9", "unit": "ng/mL"}, {"measurement": "Cmax", "setting": "[2]; dog, dogs with tumor recurrence, read-out: mean Cmax on average", "result": "82.7 ± 42.6", "unit": "ng/mL"}, {"measurement": "Cmax", "setting": "[2]; dog, dogs without AEs, read-out: mean Cmax at week 1", "result": "59.9 ± 20.2", "unit": "ng/mL"}, {"measurement": "Cmax", "setting": "[2]; dog, dogs without AEs, read-out: mean Cmax on average", "result": "64.1 ± 8.58", "unit": "ng/mL"}, {"measurement": "Cmax", "setting": "[2]; dog, dogs without tumor recurrence, read-out: mean Cmax at week 1", "result": "77 ± 13.7", "unit": "ng/mL"}, {"measurement": "Cmax", "setting": "[2]; dog, dogs without tumor recurrence, read-out: mean Cmax on average", "result": "73.2 ± 12.3", "unit": "ng/mL"}, {"measurement": "Cmax", "setting": "[2]; dog, individual dogs (case no. in c0), plasma 6 h after oral administration, week 12, read-out: Cmax Week 12", "result": 47.4, "unit": "ng/mL"}, {"measurement": "Cmax", "setting": "[2]; dog, nine dogs, average of weeks, mean ± SD, read-out: overall mean Cmax on average", "result": "76.4 ± 22.5", "unit": "ng/mL"}, {"measurement": "Cmax", "setting": "[2]; dog, nine dogs, mean ± SD, read-out: overall mean Cmax at week 1", "result": "76.2 ± 27.2", "unit": "ng/mL"}, {"measurement": "time to steady-state plasma concentration", "setting": "[2]; dogs, oral dosing every other day", "result": "≤ 1", "unit": "week"}, {"measurement": "dogs that experienced AEs", "setting": "[3]; five of the nine dogs in which Cmax was measured", "result": 55.6, "unit": "%"}, {"measurement": "dogs that experienced AEs", "setting": "[3]; five out of ten dogs, follow-up period", "result": 50, "unit": "%"}, {"measurement": "dogs that experienced AEs", "setting": "[3]; two of the four dogs in which Cmin was measured", "result": 50, "unit": "%"}, {"measurement": "dogs that developed tumor recurrence", "setting": "malignant solid tumors; three of the nine dogs with Cmax measured", "result": 33.3, "unit": "%"}, {"measurement": "dogs that developed local recurrence", "setting": "malignant solid tumors; three out of ten dogs, follow-up period", "result": 30, "unit": "%"}, {"measurement": "clinical benefit", "setting": "canine solid tumors", "result": "50–90%"}, {"measurement": "resulting Cmax", "setting": "[4]; TOC administered within 2.4 to 2.9 mg/kg", "result": "> 40", "unit": "ng/mL"}, {"measurement": "dogs in which Cmax was reached at 6 or 8 h post-administration", "setting": "[4]", "result": 69, "unit": "%"}, {"measurement": "plasma concentration at 6 or 8 h as share of actual Cmax in the remaining dogs", "setting": "[4]", "result": "> 75", "unit": "%"}, {"measurement": "Cmax level associated with clinical efficacy", "setting": "[5]; dogs with mast cell tumors receiving TOC at the MTD", "result": "at least 40 ng/mL"}, {"measurement": "elimination half-life", "setting": "[5]; in dogs", "result": "approximately 17 h"}, {"measurement": "interpatient coefficient of variation for Cmax", "setting": "[5]; previous PK study", "result": "35–40%"}, {"measurement": "interpatient coefficient of variation for Cmin", "setting": "[5]; previous PK study", "result": "30–61%"}, {"measurement": "therapeutic range (plasma concentration)", "setting": "[6]", "result": "50 to 100", "unit": "ng/mL"}]}, {"smiles": "CCN(CC)CCNC(=O)c1c(C)[nH]c(/C=C2\\C(=O)Nc3ccc(F)cc32)c1C", "note": "[sunitinib]", "values": [{"measurement": "interpatient PK variability", "setting": "[7]", "result": "34–60%"}]}]}
